Assay results from patent US11786492B2, “Therapeutic agent for phosphodiesterase inhibition and its related disorders” (Novalead Pharma Inc, priority 2017, dated 2023).

Experiments:
HaCaT cells [1] = experiment: Cell viability of HaCaT cells, Alamar blue; type: cell-based, human
Description: (§1) HaCaT cells were maintained in T-75 cm2 flask in Dulbecco's modified Eagle medium supplemented with FBS (10%), L-glutamine (2 mM), penicillin (100 ug/ml), streptomycin (100 ug/ml) at 37° C. in 5% CO2 incubator. Cell growth was maintained to 70-80% confluence for seeding and vehicle used was 1% DMSO. The cell viability was checked at various time points using Alamar blue and fluorescence readings were taken at excitation of 544 nm and emission of 590 nm.

human PBMCs = experiment: Cell viability of human PBMCs, Alamar blue; type: cell-based
Description: Fresh human blood from healthy volunteer was collected in anticoagulant (5 mM) ethylene diamine tetra acetic acid (EDTA) containing tubes. The growth medium used was RPMI-1640 medium (with 3% FBS) and incubated at 37° C. for 60 mins in a 5% CO2 incubator with vehicle used as 1% DMSO. The cell viability was checked at various time points using Alamar blue and fluorescence readings were taken at excitation of 544 nm and emission of 590 nm.

[2] = test system: Imiquimod induced psoriasis in BALB/c mice; experiment: Imiquimod induced psoriasis model in Balb/c mice; conditions: for % inhibition of Ear inflamn. / Histopathology Scores Epidermal Thickness / Histopathology Scores Hyperkeratosis / Histopathology Scores Rete Peg Prolifern. / PASI score / Spleen weight / IL23 Levels: twice daily; for IL23 Levels: ear tissue lysate
Description: BALB/c mice (Sex: Female, Age: 7-8 Weeks) were used for induction of psoriasis using IMQ. Topical application of imiquimod (IMQ) in mice can induce and exacerbate psoriasis closely resembling human psoriasis. […] 3%, 4% and 5% and positive control of Tenovate (Clobetasol) 0.05% cream. In all 63 mg cream containing 5% of IMQ was applied to dorsal area (shaved back) and right ear for 8 days. Topical formulations from Example 7 were used during this experiment.
The parameters investigated were ear thickness change, % inhibition of ear inflammation, Psoriatic Area Severity Index (PASI). Histopathology was performed of right ear and dorsal skin by H & E staining. The biomarker in this study was inflammatory cytokine IL-23 analyzed by ELISA obtained from tissue lysate of ear region where IMQ and doses were applied.

PDE7A = PDE7A (Homo sapiens, UniProt Q13946); experiment: Fluorescence polarization assay PDE7A; type: biochemical; conditions: substrate cAMP
Description: (§2) An experiment to check inhibition of various subtypes of the target Phosphodiesterase (PDE) enzyme in in-vitro assay was performed. […] PDE1A, PDE2A, PDE4A, PDE4B, PDE4C, PDE4D, PDE5A, PDE7A, PDE9A, PDE10A.

PDE4A = PDE4A (Homo sapiens, UniProt P27815); experiment: Fluorescence polarization assay PDE4A; type: biochemical; conditions: substrate cAMP
PDE4A, sequence (P27815 whole entry, species assumed): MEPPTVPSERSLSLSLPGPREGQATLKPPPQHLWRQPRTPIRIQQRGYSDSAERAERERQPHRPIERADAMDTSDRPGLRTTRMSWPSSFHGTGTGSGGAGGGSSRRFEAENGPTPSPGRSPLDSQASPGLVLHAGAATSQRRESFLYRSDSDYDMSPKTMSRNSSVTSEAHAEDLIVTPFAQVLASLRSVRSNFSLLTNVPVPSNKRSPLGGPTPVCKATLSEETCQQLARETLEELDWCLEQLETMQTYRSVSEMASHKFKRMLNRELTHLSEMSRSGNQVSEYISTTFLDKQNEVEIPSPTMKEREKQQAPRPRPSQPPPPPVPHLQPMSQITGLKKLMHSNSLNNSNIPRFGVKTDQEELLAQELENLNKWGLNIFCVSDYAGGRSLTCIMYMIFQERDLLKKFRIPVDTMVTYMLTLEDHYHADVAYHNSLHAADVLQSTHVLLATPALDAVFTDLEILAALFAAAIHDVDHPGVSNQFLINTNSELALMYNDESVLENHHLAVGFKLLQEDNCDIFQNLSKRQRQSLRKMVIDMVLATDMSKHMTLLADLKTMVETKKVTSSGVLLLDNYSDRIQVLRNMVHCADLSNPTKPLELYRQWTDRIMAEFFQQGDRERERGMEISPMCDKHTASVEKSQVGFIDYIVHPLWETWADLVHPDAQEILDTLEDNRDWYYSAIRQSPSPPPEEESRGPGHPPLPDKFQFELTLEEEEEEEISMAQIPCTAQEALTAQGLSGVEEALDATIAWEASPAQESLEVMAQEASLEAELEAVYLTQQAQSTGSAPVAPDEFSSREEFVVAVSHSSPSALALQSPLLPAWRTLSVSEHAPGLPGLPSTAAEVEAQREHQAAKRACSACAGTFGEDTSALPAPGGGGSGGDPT
Description: as §2

PDE9A = PDE9A (Homo sapiens, UniProt O76083); experiment: Fluorescence polarization assay PDE9A; type: biochemical; conditions: substrate cGMP
PDE9A, sequence (O76083 whole entry, species assumed): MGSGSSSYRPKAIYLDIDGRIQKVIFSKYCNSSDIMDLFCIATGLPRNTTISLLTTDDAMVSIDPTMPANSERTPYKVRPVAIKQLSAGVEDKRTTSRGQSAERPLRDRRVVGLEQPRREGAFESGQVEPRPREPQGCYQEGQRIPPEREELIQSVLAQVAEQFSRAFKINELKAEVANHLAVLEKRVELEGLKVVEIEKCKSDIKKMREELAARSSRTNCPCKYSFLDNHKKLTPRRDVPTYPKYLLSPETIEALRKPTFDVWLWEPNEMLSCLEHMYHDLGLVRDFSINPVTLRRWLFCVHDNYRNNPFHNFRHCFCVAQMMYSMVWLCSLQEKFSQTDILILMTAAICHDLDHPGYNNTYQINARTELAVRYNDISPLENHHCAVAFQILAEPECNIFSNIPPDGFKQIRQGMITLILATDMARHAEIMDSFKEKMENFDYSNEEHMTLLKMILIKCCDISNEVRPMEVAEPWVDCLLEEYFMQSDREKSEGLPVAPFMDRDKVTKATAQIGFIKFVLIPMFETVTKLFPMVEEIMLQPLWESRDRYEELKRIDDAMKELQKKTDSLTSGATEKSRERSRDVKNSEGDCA
Description: as §2

PDE4B = PDE4B (Homo sapiens, UniProt Q07343); experiment: Fluorescence polarization assay PDE4B; type: biochemical; conditions: substrate cAMP
PDE4B, sequence (Q07343 whole entry, species assumed): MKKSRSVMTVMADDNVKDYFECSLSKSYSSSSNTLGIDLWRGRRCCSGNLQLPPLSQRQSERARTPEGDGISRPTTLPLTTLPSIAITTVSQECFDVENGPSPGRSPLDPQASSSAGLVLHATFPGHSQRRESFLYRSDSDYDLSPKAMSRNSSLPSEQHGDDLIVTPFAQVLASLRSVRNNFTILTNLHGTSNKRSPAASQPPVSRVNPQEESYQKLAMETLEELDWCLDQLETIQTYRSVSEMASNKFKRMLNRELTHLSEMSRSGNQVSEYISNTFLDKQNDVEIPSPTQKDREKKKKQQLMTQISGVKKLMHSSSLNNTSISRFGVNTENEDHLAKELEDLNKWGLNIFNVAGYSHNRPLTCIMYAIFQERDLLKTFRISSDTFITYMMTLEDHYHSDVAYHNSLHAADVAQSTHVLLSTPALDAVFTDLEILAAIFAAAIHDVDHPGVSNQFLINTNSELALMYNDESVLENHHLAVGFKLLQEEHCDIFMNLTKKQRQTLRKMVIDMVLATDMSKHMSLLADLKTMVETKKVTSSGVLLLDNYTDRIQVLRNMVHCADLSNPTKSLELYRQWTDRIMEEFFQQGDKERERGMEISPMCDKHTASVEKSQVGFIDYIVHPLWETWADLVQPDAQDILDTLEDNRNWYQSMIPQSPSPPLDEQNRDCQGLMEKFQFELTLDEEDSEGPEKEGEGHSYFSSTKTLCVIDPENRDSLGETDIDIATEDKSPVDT
Description: as §2

IL-6 = IL-6 release from stimulated HaCaT cells, ELISA; type: cell-based, human; conditions: for IL-6 Conc.: IFN-γ 50 ng/mL, 48 hrs
Description: as §1
(§3) HaCaT cells were stimulated with different stimulators as follows: • a. Cells were exposed to stimulator LPS at 1 μg/mL for 48 hrs to stimulate IL-1β • b. Cells were exposed to stimulator IFN-γ at 50 ng/mL for 48 hrs to stimulate TNF-α, IL-6
(§4) After 48 hrs supernatants were collected and centrifuged to remove any cell debris and aliquots were used for ELISA.

PDE5A = PDE5A (Homo sapiens, UniProt O76074); experiment: Fluorescence polarization assay PDE5A; type: biochemical; conditions: substrate cGMP
Description: as §2

HaCaT cells [3] = experiment: Keratinocyte (HaCaT) proliferation, MTT assay; type: cell-based, human; conditions: Homo sapiens, HaCaT, 72 h; read-out: IC50 of cell proliferation
Description: An experiment to check keratinocyte proliferation inhibitory activity of selected compounds of Formula-I was performed to establish its application in skin disorders related to keratinocyte hyper-proliferation. HaCaT cells, a human immortalized cell line derived from keratinocytes, representing hyper-proliferating keratinocytes was investigated for anti-proliferative potential of the selected compounds by MTT assay.

PDE1A = PDE1A (Homo sapiens, UniProt P54750); experiment: Fluorescence polarization assay PDE1A; type: biochemical; conditions: substrate cGMP, Ca-CaM
PDE1A, sequence (P54750 whole entry, species assumed): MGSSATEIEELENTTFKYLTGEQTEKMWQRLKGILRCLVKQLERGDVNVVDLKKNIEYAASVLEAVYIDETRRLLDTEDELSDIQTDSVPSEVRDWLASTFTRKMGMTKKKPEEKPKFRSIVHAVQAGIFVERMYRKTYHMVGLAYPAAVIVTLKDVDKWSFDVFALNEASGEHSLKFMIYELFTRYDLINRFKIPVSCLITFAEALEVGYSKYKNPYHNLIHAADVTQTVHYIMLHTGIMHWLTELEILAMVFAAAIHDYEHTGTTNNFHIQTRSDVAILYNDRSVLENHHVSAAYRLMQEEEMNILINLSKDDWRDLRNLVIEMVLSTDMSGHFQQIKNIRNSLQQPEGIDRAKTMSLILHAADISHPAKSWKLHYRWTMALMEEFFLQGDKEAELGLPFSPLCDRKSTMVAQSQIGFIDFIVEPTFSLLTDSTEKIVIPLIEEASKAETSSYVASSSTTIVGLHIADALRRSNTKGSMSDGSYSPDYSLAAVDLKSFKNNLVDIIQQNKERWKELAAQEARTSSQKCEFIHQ
Description: as §2

PDE5 (Human platelets) = target: T1, PDE5 (Human platelets) (Homo sapiens, UniProt O76074); experiment: Radiolabeled enzyme assay PDE5; type: biochemical; conditions: read-out: % inhibition at 30 μM, 1.01 μM [3H]cGMP+cGMP
T1 construct: PDE5 (Human platelets); from tissue; host or cells: human platelets
Description: (§5) Enzyme assays have been optimized for incubation time, substrate concentration and method of end-product determination.

PDE4C = PDE4C (Homo sapiens, UniProt Q08493); experiment: Fluorescence polarization assay PDE4C; type: biochemical; conditions: substrate cAMP
Description: as §2

TNF-α = TNF-α release from stimulated HaCaT cells, ELISA; type: cell-based, human; conditions: IFN-γ 50 ng/mL, 48 hrs
Description: as §1, §3, §4

PDE2A = PDE2A (Homo sapiens, UniProt O00408); experiment: Fluorescence polarization assay PDE2A; type: biochemical; conditions: substrate cGMP
PDE2A, sequence (O00408 whole entry, species assumed): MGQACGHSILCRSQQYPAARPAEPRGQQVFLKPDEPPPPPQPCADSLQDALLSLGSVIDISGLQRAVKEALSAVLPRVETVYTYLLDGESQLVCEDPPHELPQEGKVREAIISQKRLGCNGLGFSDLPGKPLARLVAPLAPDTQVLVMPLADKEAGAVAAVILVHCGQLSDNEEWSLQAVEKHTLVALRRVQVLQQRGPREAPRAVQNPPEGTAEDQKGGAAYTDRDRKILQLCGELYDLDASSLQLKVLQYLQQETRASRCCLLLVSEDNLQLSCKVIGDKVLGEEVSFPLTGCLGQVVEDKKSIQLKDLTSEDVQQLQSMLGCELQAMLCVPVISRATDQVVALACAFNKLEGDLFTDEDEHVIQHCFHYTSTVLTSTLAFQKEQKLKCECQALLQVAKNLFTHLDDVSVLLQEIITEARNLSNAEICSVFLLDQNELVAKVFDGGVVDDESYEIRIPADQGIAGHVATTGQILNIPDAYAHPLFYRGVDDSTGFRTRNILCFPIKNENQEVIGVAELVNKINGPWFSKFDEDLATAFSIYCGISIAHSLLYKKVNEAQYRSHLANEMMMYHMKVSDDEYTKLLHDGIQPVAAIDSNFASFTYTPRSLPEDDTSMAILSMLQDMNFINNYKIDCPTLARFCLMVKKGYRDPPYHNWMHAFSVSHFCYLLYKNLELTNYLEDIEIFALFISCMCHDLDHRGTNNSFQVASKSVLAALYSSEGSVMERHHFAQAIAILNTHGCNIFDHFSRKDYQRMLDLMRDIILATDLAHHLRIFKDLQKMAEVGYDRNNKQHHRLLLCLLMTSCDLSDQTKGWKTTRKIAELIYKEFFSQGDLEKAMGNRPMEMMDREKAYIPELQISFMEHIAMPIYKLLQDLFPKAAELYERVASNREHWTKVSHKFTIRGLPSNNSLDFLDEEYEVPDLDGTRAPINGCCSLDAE
Description: as §2

PDE10A = PDE10A (Homo sapiens, UniProt Q9Y233); experiment: Fluorescence polarization assay PDE10A; type: biochemical; conditions: substrate cAMP
PDE10A, sequence (Q9Y233 whole entry, species assumed): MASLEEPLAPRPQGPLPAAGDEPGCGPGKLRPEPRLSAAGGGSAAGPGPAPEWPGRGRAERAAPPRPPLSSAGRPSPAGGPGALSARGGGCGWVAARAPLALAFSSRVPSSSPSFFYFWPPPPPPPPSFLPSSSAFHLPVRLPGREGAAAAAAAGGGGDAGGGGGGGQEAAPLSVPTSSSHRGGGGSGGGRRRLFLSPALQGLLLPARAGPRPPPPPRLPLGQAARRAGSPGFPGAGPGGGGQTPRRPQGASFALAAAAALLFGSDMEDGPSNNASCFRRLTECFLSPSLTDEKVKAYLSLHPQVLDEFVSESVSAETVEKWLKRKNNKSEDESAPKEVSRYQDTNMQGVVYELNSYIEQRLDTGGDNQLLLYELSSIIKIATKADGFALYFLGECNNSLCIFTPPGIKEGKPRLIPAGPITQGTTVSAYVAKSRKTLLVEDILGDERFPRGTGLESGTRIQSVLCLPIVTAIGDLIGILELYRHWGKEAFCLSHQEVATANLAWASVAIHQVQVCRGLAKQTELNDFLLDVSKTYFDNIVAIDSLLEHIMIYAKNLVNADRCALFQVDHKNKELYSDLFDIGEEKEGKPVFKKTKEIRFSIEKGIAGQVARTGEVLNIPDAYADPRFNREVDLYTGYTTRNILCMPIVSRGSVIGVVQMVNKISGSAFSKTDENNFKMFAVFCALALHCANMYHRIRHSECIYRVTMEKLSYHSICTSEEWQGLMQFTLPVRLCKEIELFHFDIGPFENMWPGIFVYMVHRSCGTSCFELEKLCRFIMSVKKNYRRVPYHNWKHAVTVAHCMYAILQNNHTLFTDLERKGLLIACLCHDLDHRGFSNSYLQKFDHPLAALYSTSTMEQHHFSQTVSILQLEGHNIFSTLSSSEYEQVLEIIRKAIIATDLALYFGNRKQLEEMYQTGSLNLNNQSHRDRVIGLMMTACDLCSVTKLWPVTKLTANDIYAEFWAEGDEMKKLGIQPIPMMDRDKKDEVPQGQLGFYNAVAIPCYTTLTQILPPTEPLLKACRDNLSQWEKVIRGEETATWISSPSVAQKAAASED
Description: as §2

PDE2 (Human platelets) = target: T2, PDE2 (Human platelets) (Homo sapiens, UniProt O00408); experiment: Radiolabeled enzyme assay PDE2; type: biochemical; conditions: read-out: % inhibition at 30 μM, 1.01 μM [3H]cAMP+cAMP
T2 construct: PDE2 (Human platelets); from tissue; host or cells: human platelets
T2 sequence (O00408 whole entry): as the sequence (O00408 whole entry, species assumed) above
Description: as §5

In the case of COc1cccc2c1C(=O)c1c(O)c3c(c(O)c1C2=O)C[C@@](O)(C(=O)CO)C[C@@H]3O[C@H]1C[C@H](N)[C@H](O)[C@H](C)O1 [Doxorubicin], the “% Viability (±S.E.M.)” value (HaCaT cells [1]; 3 μM, 24 hrs) is reported as 74 ± 6%, the “% Viability (±S.E.M.)” value (HaCaT cells [1]; 3 μM, 48 hrs) is reported as 108 ± 5% and the “% Viability (±S.E.M.)” value (HaCaT cells [1]; 3 μM, 72 hrs) is reported as 110 ± 2%. For the same compound, the “% Viability (±S.E.M.)” value (human PBMCs; 3 μM, 24 hrs) was 110 ± 1%, the “% Viability (±S.E.M.)” value (human PBMCs; 3 μM, 48 hrs) was 70 ± 5% and the “% Viability (±S.E.M.)” value (human PBMCs; 3 μM, 72 hrs) was 52 ± 1%.
For O=C(Nc1ccc([N+](=O)[O-])cc1Cl)c1cc(Cl)ccc1O [Niclosamide], the “% inhibition of Ear inflamn.” value ([2]; 1% topical) was 27.1%, the “Histopathology Scores Epidermal Thickness” value ([2]; 1% topical) was 6.8 ± 0.2 and the “Histopathology Scores Hyperkeratosis” value ([2]; 1% topical) was 0.8 ± 0.2. For the same compound, the “Histopathology Scores Rete Peg Prolifern.” value ([2]; 1% topical) was 1.8 ± 0.2, the PASI score ([2]; 1% topical) was 15.8 ± 3.0 and the “Spleen weight” value ([2]; 1% topical, Day 9) was 265.2 ± 49.2 mg. For the same compound, the “IL23 Levels” value ([2]; 1% topical) was 119.9 ± 7.8 pg/mL, the “% inhibition of Ear inflamn.” value ([2]; 2% topical) was 30.4% and the “Histopathology Scores Epidermal Thickness” value ([2]; 2% topical) was 5.6 ± 0.8. For the same compound, the “Histopathology Scores Hyperkeratosis” value ([2]; 2% topical) was 1.4 ± 0.2, the “Histopathology Scores Rete Peg Prolifern.” value ([2]; 2% topical) was 1.4 ± 0.2 and the PASI score ([2]; 2% topical) was 17.2 ± 1.7. The “Spleen weight” value ([2]; 2% topical, Day 9) was 214.4 ± 15.1 mg, the “IL23 Levels” value ([2]; 2% topical) was 96.6 ± 10.9 pg/mL and the “reduction in the PASI score” value ([2]; 3% concentration) was “up to 50%”. The “% inhibition of Ear inflamn.” value ([2]; 3% topical) was 42.7%, the “Histopathology Scores Epidermal Thickness” value ([2]; 3% topical) was 5.2 ± 0.2 and the “Histopathology Scores Hyperkeratosis” value ([2]; 3% topical) was 1.0 ± 0.0^$. The “Histopathology Scores Rete Peg Prolifern.” value ([2]; 3% topical) was 0.5 ± 0.2, the PASI score ([2]; 3% topical) was 10.7 ± 4.1 and the “Spleen weight” value ([2]; 3% topical, Day 9) was 229.7 ± 18.7 mg. The “IL23 Levels” value ([2]; 3% topical) was 83.6 ± 9.8 pg/mL, the “Spleen weight vs disease control (in words)” value ([2]; Niclosamide 2%, Nitazoxanide 3% and 5%, Clobetasol 0.05%, Day 9) was “marginal reduction in spleen weight” and the “IL-23 level in ear tissue homogenates (in words)” value ([2]; different doses) was “reduction of IL-23 level”. For the same compound, the “Hyperkeratosis (in words)” value ([2]; ear lobe histopathology) was “significant reduction in Hyperkeratosis”, the “% Viability (±S.E.M.)” value (HaCaT cells [1]; 0.1 μM, 24 hrs) was 111 ± 9% and the “% Viability (±S.E.M.)” value (HaCaT cells [1]; 0.1 μM, 48 hrs) was 82 ± 3%. The “% Viability (±S.E.M.)” value (HaCaT cells [1]; 0.1 μM, 72 hrs) was 98 ± 6%, the “% Viability (±S.E.M.)” value (HaCaT cells [1]; 1 μM, 24 hrs) was 62 ± 4% and the “% Viability (±S.E.M.)” value (HaCaT cells [1]; 1 μM, 48 hrs) was 46 ± 0%. The “% Viability (±S.E.M.)” value (HaCaT cells [1]; 1 μM, 72 hrs) was 59 ± 11%, the “% Viability (±S.E.M.)” value (HaCaT cells [1]; 5 μM, 24 hrs) was 48 ± 1% and the “% Viability (±S.E.M.)” value (HaCaT cells [1]; 5 μM, 48 hrs) was 36 ± 2%. For the same compound, the “% Viability (±S.E.M.)” value (HaCaT cells [1]; 5 μM, 72 hrs) was 45 ± 8%, the “% Viability (±S.E.M.)” value (HaCaT cells [1]; 10 μM, 48 hrs) was 29 ± 1% and the “% Viability (±S.E.M.)” value (HaCaT cells [1]; 10 μM, 72 hrs) was 33 ± 2%. For the same compound, the “% Viability (±S.E.M.)” value (HaCaT cells [1]; 50 μM, 24 hrs) was 28 ± 1%, the “% Viability (±S.E.M.)” value (HaCaT cells [1]; 50 μM, 48 hrs) was 16 ± 0% and the “% Viability (±S.E.M.)” value (HaCaT cells [1]; 50 μM, 72 hrs) was 23 ± 7%. The IC50 (PDE7A) was 19.1 µM, the IC50 (PDE4A) was 100 µM and the IC50 (PDE9A) was 59.8 µM. The IC50 (PDE4B) was 69.1 µM, the “IL-6 Conc.” value (IL-6; 0.05 μM) was 103 ± 4 pg/mL and the “IL-6 Conc.” value (IL-6; 0.1 μM) was 76 ± 4 pg/mL. For the same compound, the “IL-6 release in HaCaT cells (in words)” value (IL-6; 0.25 μM) was “Reduction in IL-6 release”, the “IL-6 Conc.” value (IL-6; 0.25 μM) was 54 ± 11 pg/mL and the “% Viability (±S.E.M.)” value (human PBMCs; 0.01 μM, 24 hrs) was 134 ± 7%. For the same compound, the “% Viability (±S.E.M.)” value (human PBMCs; 0.01 μM, 48 hrs) was 107 ± 1%, the “% Viability (±S.E.M.)” value (human PBMCs; 0.01 μM, 72 hrs) was 107 ± 6% and the “% Viability (±S.E.M.)” value (human PBMCs; 1 μM, 24 hrs) was 94 ± 4%. The “% Viability (±S.E.M.)” value (human PBMCs; 1 μM, 48 hrs) was 63 ± 0%, the “% Viability (±S.E.M.)” value (human PBMCs; 1 μM, 72 hrs) was 60 ± 1% and the “% Viability (±S.E.M.)” value (human PBMCs; 100 μM, 24 hrs) was 27 ± 5%. For the same compound, the “% Viability (±S.E.M.)” value (human PBMCs; 100 μM, 48 hrs) was 2 ± 1%, the “% Viability (±S.E.M.)” value (human PBMCs; 100 μM, 72 hrs) was −2 ± 0% and the IC50 (PDE5A) was 16.7 µM. The IC50 (HaCaT cells [3]) was 3.25 µM, the IC50 (PDE1A) was 88.7 µM and the inhibition at 30 µM (PDE5 (Human platelets)) was 49%. For the same compound, the IC50 (PDE4C) was 20.2 µM, the “TNF-α Conc.” value (TNF-α; 0.05 μM) was 2.5 ± 0.1 pg/mL and the “TNF-α Conc.” value (TNF-α; 0.1 μM) was 2.8 ± 0.1 pg/mL. For the same compound, the “TNF-α Conc.” value (TNF-α; 0.25 μM) was 2.5 ± 0.1 pg/mL, the IC50 (PDE2A) was 11.6 µM and the IC50 (PDE10A) was 19 µM. It also gave an inhibition at 30 µM (PDE2 (Human platelets)) of 16%.
